According to PubChem BioAssay AID1963829 (Molecular Pharmacology Branch, DTP, NCI, 2024):
Several values for one entry are separate records, joined by “and”; a condition that tells them apart may be missing. Equal entries are not always repeated.

Test system: 935938-334-R-J1-PDC complex spheroid viability
Test: Anticancer human tumor 935938-334-R-J1-PDC patient-derived small intestine adenocarcinoma cell line growth inhibition [POLQ]
Details: for viability, T/C: stronger effect = lower value
Description: Multicellular complex tumor spheroid response to Polymerase (POL) inhibitors (novobiocin, ART-558, RP6685) in combination with a variety of drugs and investigational agents in selected tumor cell lines
The POL inhibitors (novobiocin, ART-558, and RP6685) were evaluated both individually and in combination with standard of care and investigational anticancer small molecules within a complex spheroid model of solid tumors. . Complex spheroids include a stromal component modeled by human endothelial cells (HUVEC) and fibroblasts modeled by human mesenchymal stem cells (MSCs). The concentration ranges selected for each drug and investigational agent were based upon clinically achievable concentrations if the clinical Cmax of the agent was known.
Compounds. The drugs and investigational agents: novobiocin (NSC847541), ART-558 (NSC835418), RP-6685 (NSC848927), peposertib (NSC802822), ceralasertib (NSC780249), elimusertib (NSC800525), camonsertib (NSC841442), AZD-1390 (NSC803789), olaparib (NSC753686), talazoparib (NSC767125), rucaparib (NSC756644), sotorasib (NSC818433), MRTX-1133 (NSC836407), SN-38 (NSC673596), topotecan (NSC609699), epotoside (NSC141540), doxorubicin (NSC123127), gemcitabine (NSC613327), 5-fluorouracil (NSC19893), paclitaxel (NSC125973), vemurafenib (NSC761431), MSA-2 (NSC828583), SN-011 (NSC837082), adavosertib (NSC754352), prexasertib (NSC758257), carboplatin (NSC241240) and oxaliplatin (NSC266046), were obtained from the National Cancer Institute (NCI) Developmental Therapeutics Program Chemical Repository (21). The FDA-approved anticancer drug set is available from the Developmental Therapeutics Program at https://dtp.cancer.gov/organization/dscb/obtaining/. […] The stock solutions were prepared in dimethyl sulfoxide (DMSO, Sigma-Aldrich, St. Louis, MO, cat. D2650), except for the platinum compounds which were prepared in saline (Quality Biological, Gaithersburg, MD, cat. 114-055-101), at 800-fold the tested concentration and stored at -70 degrees C prior to their use. All drugs and investigational agents were tested over a range starting from a high concentration at or near the clinical Cmax and decreasing in half-log increments. If the clinical Cmax for an agent had not been determined, the highest concentration tested was 10 microM, except for SN-38, which was tested at a high concentration of 1 microM.
Cell Culture. All cells were maintained in an incubator at 37 degrees C and 5% CO2 with 95% humidity. The PDC lines were cultured according to standard operating procedures established by the NCI PDMR (https://pdmr.cancer.gov). Table 3 of the manuscript, lists the cell lines along with the number of the three cell types plated to form the mct-spheroids and media for tumor cell growth. After thawing, all PDC lines, except 997537-175-T-J1-PDC and 415267-285-R-J2-PDC, were cultured in Matrigel-coated flasks prepared with a working solution of 1X Ham's F-12 nutrient mix, without supplementation (Thermo Fisher Scientific, cat. 11765054), 100 U/mL penicillin-streptomycin (Thermo Fisher Scientific, cat. 15140122), and 2.5% Matrigel (Corning Inc., Corning, NY, cat. 354248) for the first three passages. The two PDC lines 997537-175-T-J1-PDC and 415267-285-R-J2-PDC were cultured on uncoated flasks. The 857933-349-R-J2-PDC line was cultured in 6C/Colon 1B media containing advanced DMEM/F-12 (Thermo Fisher Scientific, cat. 12634028), 10 mM HEPES (Thermo Fisher Scientific, cat. 15630080), 1X GlutaMAX supplement (Thermo Fisher Scientific, cat. 35050061), 0.1 mg/mL primocin (InvivoGen, San Diego, CA, cat. ant-pm-2), 10% defined fetal bovine serum, heat inactivated (HyClone Laboratories Inc., Logan, UT, cat. SH30070.03HI), 50% L-WRN conditioned media (ATCC, cat. CRL-3276), 1.25 mM N-Acetyl-L-cysteine (Sigma-Aldrich, cat. A9165), 10 mM nicotinamide (Sigma-Aldrich, cat. N0636), 1X B-27 supplement (Thermo Fisher Scientific, cat. 17504044), 1X N-2 supplement (Thermo Fisher Scientific, cat. […]
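Further: spheroids exposed to drugs for seven days before viability read.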
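Wherever viability, T/C is given: 100% = DMSO vehicle control wells.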

C=CC(=O)N1CCN(c2nc(=O)n(-c3c(C)ccnc3C(C)C)c3nc(-c4c(O)cccc4F)c(F)cc23)C(C)C1 (stereo not drawn)
viability, T/C (compound 0.0316 µM): 83.1% and 99.4% and 81.4%
viability, T/C (compound 0.1 µM): 94.9% and 68.4% and 69.6%
viability, T/C (compound 0.316 µM): 89.5% and 99.7% and 67.9%
viability, T/C (compound 1 µM): 89.7% and 115% and 113%
viability, T/C (compound 3.16 µM): 102% and 110% and 112%
viability, T/C (compound 10 µM): 99.6% and 131% and 105%
IC50 (curve of compound): > 10 µM

CC1COCCN1c1cc(C2(O)CC3CCC(C2)O3)c2cnn(-c3ccn[nH]3)c2n1 (stereo not drawn) + Cc1cccc(N(C)C(=O)C2C(O)CCN2c2nc(C)cc(C(F)(F)F)c2C#N)c1
IC50 (curve of first compound, second compound 0.0316 µM): 0.372 µM
IC50 (curve of first compound, second compound 0.1 µM): 0.262 µM
IC50 (curve of first compound, second compound 0.316 µM): 0.331 µM
IC50 (curve of first compound, second compound 1 µM): 0.215 µM
IC50 (curve of first compound, second compound 3.16 µM): 0.198 µM
IC50 (curve of first compound, second compound 10 µM): 0.155 µM
viability, T/C (second compound 0.0316 µM, first compound 0.0316 µM): 84%
viability, T/C (second compound 0.0316 µM, first compound 0.1 µM): 76.2%
viability, T/C (second compound 0.0316 µM, first compound 0.316 µM): 52.9%
viability, T/C (second compound 0.0316 µM, first compound 1 µM): 29.1%
viability, T/C (second compound 0.0316 µM, first compound 3.16 µM): 18.7%
viability, T/C (second compound 0.0316 µM, first compound 10 µM): 13.8%
viability, T/C (second compound 0.1 µM, first compound 0.0316 µM): 101%
viability, T/C (second compound 0.1 µM, first compound 0.1 µM): 90.3%
viability, T/C (second compound 0.1 µM, first compound 0.316 µM): 40.1%
viability, T/C (second compound 0.1 µM, first compound 1 µM): 25.8%
viability, T/C (second compound 0.1 µM, first compound 3.16 µM): 17.7%
viability, T/C (second compound 0.1 µM, first compound 10 µM): 9.91%
viability, T/C (second compound 0.316 µM, first compound 0.0316 µM): 66.2%
viability, T/C (second compound 0.316 µM, first compound 0.1 µM): 92.2%
viability, T/C (second compound 0.316 µM, first compound 0.316 µM): 51.3%
viability, T/C (second compound 0.316 µM, first compound 1 µM): 24.8%
viability, T/C (second compound 0.316 µM, first compound 3.16 µM): 18%
viability, T/C (second compound 0.316 µM, first compound 10 µM): 13.3%
viability, T/C (second compound 1 µM, first compound 0.0316 µM): 77.7%
viability, T/C (second compound 1 µM, first compound 0.1 µM): 74.5%
viability, T/C (second compound 1 µM, first compound 0.316 µM): 37%
viability, T/C (second compound 1 µM, first compound 1 µM): 25.3%
viability, T/C (second compound 1 µM, first compound 3.16 µM): 18.9%
viability, T/C (second compound 1 µM, first compound 10 µM): 12.5%
viability, T/C (second compound 3.16 µM, first compound 0.0316 µM): 90.6%
viability, T/C (second compound 3.16 µM, first compound 0.1 µM): 64.5%
viability, T/C (second compound 3.16 µM, first compound 0.316 µM): 40.2%
viability, T/C (second compound 3.16 µM, first compound 1 µM): 23.9%
viability, T/C (second compound 3.16 µM, first compound 3.16 µM): 20.6%
viability, T/C (second compound 3.16 µM, first compound 10 µM): 12.3%
viability, T/C (second compound 10 µM, first compound 0.0316 µM): 70.3%
viability, T/C (second compound 10 µM, first compound 0.1 µM): 56.8%
viability, T/C (second compound 10 µM, first compound 0.316 µM): 39.6%
viability, T/C (second compound 10 µM, first compound 1 µM): 23.2%
viability, T/C (second compound 10 µM, first compound 3.16 µM): 17.2%
viability, T/C (second compound 10 µM, first compound 10 µM): 9.31%

CC(C)n1c(=O)n(C)c2cnc3cc(F)c(-c4ccc(OCCCN5CCCCC5)nc4)cc3c21
viability, T/C (compound 0.0316 µM): 75.1% and 94.3% and 79.1%
viability, T/C (compound 0.1 µM): 104% and 75.2% and 67.4%
viability, T/C (compound 0.316 µM): 103% and 102% and 65.2%
viability, T/C (compound 1 µM): 92.1% and 121% and 73.4%
viability, T/C (compound 3.16 µM): 113% and 120% and 72.1%
viability, T/C (compound 10 µM): 94.9% and 91.5% and 72.9%
IC50 (curve of compound): > 10 µM

Nc1ccn(C2OC(CO)C(O)C2(F)F)c(=O)n1 (stereo not drawn)
viability, T/C (compound 0.0316 µM): 39.8% and 30.9% and 30.5%
viability, T/C (compound 0.1 µM): 26.2% and 19.4% and 23.6%
viability, T/C (compound 0.316 µM): 23.7% and 17.5% and 14.9%
viability, T/C (compound 1 µM): 22.1% and 18.1% and 16%
viability, T/C (compound 3.16 µM): 20.7% (2×) and 16.5%
viability, T/C (compound 10 µM): 18.4% and 16% and 17.2%
IC50 (curve of compound): < 0.0316 µM
